# Assay results published in article PMC6814738, “Bacterial MgrB peptide activates chemoreceptor Fpr3 in mouse accessory olfactory system and drives avoidance behaviour” (Nature Communications, 2019).
# Where “and” joins values, the source holds several entries; their conditions need not be identical. Equal entries are not always repeated. Peptide text beside a SMILES is read from it. * marks the point of attachment. For = O=C*
# Assays:
# [1] = target: T1, mouse Fpr3 (Fpr-rs1) (Mus musculus, UniProt O08790); test: Heterologous expression / high-throughput Ca2+ imaging agonist screen and sequence selectivity of Fpr3 (Fig. 1a, 2c-e, 2g, 2i); assay type: cell-based; conditions: for Ca2+ response, mean: mean of n = 3 experiments in triplicate (n = 5 for f-MKKFRW), Fpr3 + Gα16 HEK293T, Fluo-4/AM, buffer C1 pH 7.2, mock 0.059-0.060
# T1 construct: expressed in transfected cells; host or cells: HEK293T (DSMZ # ACC-635), transient transfection with jetPEI
# T1 sequence (O08790 1-351): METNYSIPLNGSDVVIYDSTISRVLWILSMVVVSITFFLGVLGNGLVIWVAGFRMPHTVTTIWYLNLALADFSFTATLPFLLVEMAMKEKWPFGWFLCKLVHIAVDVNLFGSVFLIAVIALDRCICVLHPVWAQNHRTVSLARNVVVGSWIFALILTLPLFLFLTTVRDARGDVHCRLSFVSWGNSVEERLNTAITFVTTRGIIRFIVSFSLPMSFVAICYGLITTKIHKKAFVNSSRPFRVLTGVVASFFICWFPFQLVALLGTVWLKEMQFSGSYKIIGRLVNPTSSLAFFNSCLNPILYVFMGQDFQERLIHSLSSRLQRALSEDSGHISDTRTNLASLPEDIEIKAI
# Description: An Fpr3 gene subcloned from genomic DNA of C57BL/6J mice into pcDNA3.1 (Invitrogen) was used in heterologous experiments[21],[80]. HEK293T (DSMZ # ACC-635) cells were seeded at 20–30% confluence on poly-D-lysine-coated (10 µg/ml in PBS) black 96-well µCLEAR-Plates (Greiner Bio-One). Cells were transfected 24 h later using jetPEI™ (Polyplus-transfection SA) according to the manufacturer’s protocol for 96-well transfections. For Ca^2+ imaging experiments, 0.125 µg of DNA plasmid encoding Fpr3 were cotransfected with equal amounts of a plasmid encoding Gα16, a promiscuous G protein α-subunit. Ca^2+ signals to agonist stimulation were recorded 48 h post transfection using the Ca^2+ indicator dye Fluo-4/AM (Molecular Probes) and a fluorescence imaging plate reader (FLIPR) system (Molecular Devices). Cotransfection of a plasmid encoding Gα16 with an empty vector used to subclone Fpr3 gave no agonist-evoked Ca^2+ responses.
# We used custom-made peptides with a length of 6–21 amino acids to screen for agonists. Sequences of fMet peptides were designed according to motifs present at the N-termini of 15,125 specific bacterial proteins as annotated in UniProt. Peptides were chemically synthesised, purified, and verified by mass spectroscopy (MALDI-TOF) by commercial suppliers. Purity of all peptides was >95%. Source, sequence and purity of each peptide are listed in Supplementary Data 1. Lyophilised peptides were routinely dissolved in the Ca^2+ imaging assay buffer C1 (130 mM NaCl, 10 mM HEPES, 5 mM KCl, 2 mM CaCl2, 5 mM glucose, pH 7.2) as 0.2–1 mM stock solutions and kept in small aliquots at −20 °C until use. […] The sequences of these peptides exist in proteins from the following bacterial strains[21]: Psychromonas ingrahamii that belongs to a marine ice water microbial community, Desulfotomaculum reducens that is found in deep freshwater lakes, and Pseudomonas grimontii, a plant pathogen. As mice are unlikely to encounter these strains in their natural habitat, these findings are probably not of biological relevance.
# [2] = test system: male mice; test: Behavioural avoidance test, FEU vs. FEU supplemented with peptide (Fig. 8, Supplementary Fig. 4); assay type: in vivo, mouse; conditions: for avoidance index: mean ± s.e.m.; for Preference (%): group mean value, FEU vs FEU supplemented with 100 µM peptide
# Description: These assays were adapted from behavioural procedures described previously[14],[60]. We tested avoidance by giving adult male mice (8–14 week old) of various genotypes a choice to freely investigate two types of chemical stimuli: FEU vs. FEU supplemented with a peptide. Mice were sexually naïve and not exposed to the test stimuli prior to the testing day. Mice were habituated for three days (40 min each day) to clean filter papers (2.5 cm diameter), each deposited in a sterile plastic culture dish and placed in opposite corners of the test cage (30 × 12 cm). After the third habituation period, the test subject was transferred into a new cage containing fresh filter papers/dishes with either of the two test stimuli. One filter paper was impregnated with 45 µl of fresh urine pooled from two sexually naïve female B6 mice (8–16 weeks old) in oestrus (FEU, female oestrous urine) and 5 µl physiological solution containing (in mM): NaCl, 130; KCl, 5; Na-Hepes, 10; CaCl2, 2; glucose, 10; pH = 7.4. For testing the effects of specific peptides, the second filter paper was impregnated with FEU supplemented with a given peptide (100 or 50 µM final concentration, dissolved in physiological solution). Direct physical contact was allowed. Behaviour was recorded for 10 min from the top of the cage. Mice were exposed only once to a given peptide solution, and were exposed to only one peptide stimulus per day. Stimuli were presented in randomised order. […] This investigative behaviour was quantified as the time spent in close contact with each filter paper, scored manually by an observer blind to the experimental conditions using Behavioural Observation Research Interactive Software (BORIS)[85]. Contact time was measured as the time during which the nose crossed the border of a petri dish containing impregnated filter paper. An avoidance index was calculated as (TP — aTU)/(aTP + aTU), with TP as the time an individual mouse investigated a FEU-peptide mixture, aTP as the average time of all tested mice investigating this stimulus and aTU as the average time of all mice investigating FEU without added peptide. Negative values represent avoidance and positive values represent attraction. For analysing investigation of sick conspecifics, B6 mice were injected either with LPS or PBS as described above. In total, 4 h post injection, these mice were anaesthetised with 165 mg/kg ketamine (Pharmacia GmbH, Berlin, Germany) and 11 mg/kg xylazine (Bayer Health Care, Leverkusen, Germany) and then used in behavioural tests.
# [3] = 100 µM, B6 mice (f-MKKFRW also ΔFpr3-lacZ+/+, cGαo+/−, Trpc2+/−)
# [4] = B6, 100 µM in FEU, n = 10-11, negative = avoidance
# [5] = Fig. 8c, individual values, B6 mice
# [6] = Fig. 8c, mean, B6 mice, n = 11 f-MKKFRW, 11 MKKFRW, 10 f-MGFFIS, 10 f-MEQQNK, FEU control -0.002
compound,measurement,setting,value
CSCC[C@H](NC=O)C(=O)N[C@@H](CCCCN)C(=O)N[C@@H](CCCCN)C(=O)N[C@@H](Cc1ccccc1)C(=O)N[C@@H](CCCNC(=N)N)C(=O)N[C@@H](Cc1c[nH]c2ccccc12)C(=O)O [f-MKKFRW] (For-MKKFRW-OH),"activation of Fpr3 in agonist screen, in words","[1]; 3 µM, Fpr3-transfected HEK293T, Gα16, Fluo-4/AM, FLIPR, Fig. 1a",activated Fpr3-expressing HEK293T
same,"Ca2+ response, mean","[1]; 3 µM, FLIPR",0.110 ∆F/F
same,"Fpr3 activation by sequence variants, in words","[1]; 30 µM (3 or 30 µM for elongated peptides), Fpr3-transfected HEK293T, Fig. 2c-e, i",Fpr3 recognises the core agonist f-MKKFRW
same,"Ca2+ response, mean","[1]; 30 µM, FLIPR",0.423 ∆F/F
same,"specific Ca2+ response of Fpr3 in agonist screen, in words","[1]; 3 or 30 µM, Fpr3-transfected HEK293T, panel of 41 peptides, Fig. 1a",caused Fpr3 activation
same,"avoidance, in words","[2]; 50 µM, B6 mice",mice were still capable of displaying avoidance
same,"avoidance, in words",[2]; [3],robust avoidance
same,"avoidance, in words","[2]; 100 µM, ΔFpr3-lacZ −/−, cGαo −/− and Trpc2 −/− mice",absent
same,avoidance index,"[2]; B6, 50 µM in FEU, N = 9, Supplementary Fig. 4d",-0.34 ± 0.06
same,avoidance index,[2]; [4],−0.34 ± 0.03
same,Preference Index,[2]; [5],-0.2596 and -0.3493 and -0.4593 and -0.377 (2×) and -0.1335 and -0.375 and -0.3656 and -0.2037 and -0.2877 and -0.531
same,Preference Index,[2]; [6],-0.34
same,Preference Index,"[2]; Fig. 8e, individual values, cGao +/-",-0.2157 and -0.2715 and -0.2275 and -0.592 and -0.6063 and -0.5538 and -0.3716 and -0.4364 and -0.4748 and -0.4802 and -0.5951 and -0.504 and -0.5805
same,Preference Index,"[2]; Fig. 8e, individual values, cGao -/-",0.466 and 0.06846 and 0.3027 and 0.3207 and 0.1056 and -0.3803 and 0.00671 and 0.2965 and 0.7963 and 0.4351 and -0.3658 and -0.3561 and -0.3465
same,Preference Index,"[2]; Fig. 8e, mean, cGao +/-, n = 13 f-MKKFRW, 12 MKKFRW, FEU control -0.0358",-0.45
same,Preference Index,"[2]; Fig. 8e, mean, cGao -/-, n = 13, FEU control 0.15",0.10
same,Preference Index,"[2]; Fig. 8f, individual values, Trpc2 +/-",-0.1378 and -0.4957 and -0.5951 and -0.4313 and -0.5692 and -0.4357 and -0.03894 and -0.2863 and -0.157 and -0.6487 and -0.5152 and -0.5504
same,Preference Index,"[2]; Fig. 8f, individual values, Trpc2 -/-",-0.1066 and -0.3083 and -0.1978 and -0.152 and 0.6895 and 0.2354 and -0.08494 and 0.4331 and -0.3499 and -0.2993 and -0.07691
same,Preference Index,"[2]; Fig. 8f, mean, Trpc2 +/-, n = 12 f-MKKFRW, 9 MKKFRW, FEU control -0.0531",-0.41
same,Preference Index,"[2]; Fig. 8f, mean, Trpc2 -/-, n = 11 f-MKKFRW, 8 MKKFRW, FEU control -0.10",-0.02
same,Preference (%),"[2]; Fig. 8g, ∆Fpr3-lacZ +/+ males, FEU/FEU control -5.85844",-25.7155%
same,Preference (%),"[2]; Fig. 8g, ∆Fpr3-lacZ -/- males, FEU/FEU control 2.58474",9.5733%
same,Preference (%),"[2]; Fig. 8h, Trpc2 +/- males, FEU/FEU control 0.100694",-20.0023%
same,Preference (%),"[2]; Fig. 8h, Trpc2 -/- males, FEU/FEU control -3.21189",-1.896%
same,Preference Index,"[2]; Fig. 8d, individual values, ∆Fpr3-lacZ +/+",-0.634 and -0.7071 and -0.2684 and -0.569 and -0.6199 and -0.495 and -0.4793 and -0.629 and -0.5062
same,Preference Index,"[2]; Fig. 8d, individual values, ∆Fpr3-lacZ -/-",-0.00973 and -0.216 and 0.248 and 0.6807 and 0.8928 and 0.2328 and 0.2493 and -0.01291 and 0.00975 and -0.2244 and 0.2479 and 0.4981
same,Preference Index,"[2]; Fig. 8d, mean, ∆Fpr3-lacZ +/+, n = 9 f-MKKFRW, 6 MKKFRW, FEU control -0.06",-0.55
same,Preference Index,"[2]; Fig. 8d, mean, ∆Fpr3-lacZ -/-, n = 12, FEU control 0.19",0.22
same,avoidance index,"[2]; Trpc2 +/−, 100 µM in FEU",−0.41 ± 0.06
same,avoidance index,"[2]; Trpc2 −/−, 100 µM in FEU",−0.02 ± 0.10
same,avoidance index,"[2]; cGαo +/−, 100 µM in FEU",−0.45 ± 0.04
same,avoidance index,"[2]; cGαo −/−, 100 µM in FEU, n = 13",0.10 ± 0.11
same,avoidance index,"[2]; ∆Fpr3-lacZ +/+, 100 µM in FEU",−0.55 ± 0.04
same,avoidance index,"[2]; ∆Fpr3-lacZ −/−, 50 µM in FEU, N = 5, Supplementary Fig. 4d",0.005 ± 0.08
same,avoidance index,"[2]; ∆Fpr3-lacZ −/−, 100 µM in FEU, n = 12",0.22 ± 0.10
f-MGFFIS [bacterial signal peptide fragment],"Ca2+ response, mean","[1]; 3 µM, FLIPR",0.055 ∆F/F
same,"Ca2+ response, mean","[1]; 30 µM, FLIPR",0.048 ∆F/F
same,"avoidance, in words",[2]; [3],failed to elicit avoidance
same,avoidance index,[2]; [4],0.13 ± 0.09
same,Preference Index,[2]; [5],-0.07414 and 0.6081 and -0.2699 and 0.01401 and 0.4619 and -0.1746 and 0.304 and 0.1043 and 0.0419 and 0.2857
same,Preference Index,[2]; [6],0.13
